Reference: patent US7700765B2, “DNA minor groove binding compounds” (University of Strathclyde, priority 2001, dated 2010)
Values after ≈ are worked out from the molar mass of the structure shown.

Columns and labels:
[1] = system: MRSA; assay: Minimum inhibitory concentration (MIC) against microorganisms; assay type: cell-based; details: Staphylococcus aureus; Organism: MRSA
Text: (§1) Minimum inhibitory concentrations (MICs) against microorganisms (e.g. S. Aureus, E. coli, S. faecalis, P. vulgaris, MRSA, Aspergillus niger, Candida albicans, Klebs. aerogenes, Ent. cloacae, Mycobacterium fortuitum or Aspergillus nidulans) for compounds of the invention may be measured using procedures such as those described in A. J. Drummond and R. D. Waigh “The development of microbiological methods for phytochemical screening” Recent Res. Devel. Phytochem. 4, 143-152 (2000).

[2] = system: E. coli; assay: as above; assay type: cell-based; details: Escherichia coli; Organism: E. coli
Text: as §1

[3] = system: S. faecalis; assay: as above; assay type: cell-based; details: Enterococcus faecalis; Organism: S. faecalis
Text: as §1

[4] = system: Ent. cloacae; assay: as above; assay type: cell-based; details: Enterobacter cloacae; Organism: Ent. cloacae
Text: as §1

[5] = system: S. aureus; assay: as above; assay type: cell-based; details: Staphylococcus aureus; Organism: S. aureus
Text: as §1

[6] = system: P. vulgaris; assay: as above; assay type: cell-based; details: Proteus vulgaris; Organism: P. vulgaris
Text: as §1

[7] = system: Klebs. aerogenes; assay: as above; assay type: cell-based; details: Klebsiella aerogenes; Organism: Klebs. aerogenes
Text: as §1

[8] = system: Aspergillus niger; assay: as above; assay type: cell-based; details: Organism: Aspergillus niger
Text: as §1

[9] = system: Candida albicans; assay: as above; assay type: cell-based; details: Organism: Candida albicans
Text: as §1

[10] = system: Aspergillus nidulans; assay: as above; assay type: cell-based; details: Organism: Aspergillus nidulans
Text: as §1

[11] = system: Mycobacterium fortuitum; assay: as above; assay type: cell-based; details: Mycolicibacterium fortuitum; Organism: Mycobacterium fortuitum
Text: as §1

[12] = system: NFκB protein-DNA complexes; assay: NFκB DNA-binding assay (gel shift) with macrophage nuclear extracts; assay type: biochemical, Murine; details: 1 μL of a 1 mM solution, final volume 10 μL; nuclear protein from macrophages exposed to LPS
Description: Murine macrophages (obtained and cultured as described in Cell. Signal. 11(7), 491 (1999), hereinafter referred to as “Reference 1”, the disclosures of which document are hereby incorporated by reference) were exposed to vehicle (see Reference 1) or 1 μg/mL lipopolysaccharide (LPS; the active component of gram-negative endotoxin and a strong activator of the Nuclear Factor kappa B (NFκB) pathway; the particular LPS being obtained from Salmonella minnesota) for 1 hour and nuclear extracts prepared by standard procedures (see Brit. J. Pharmacol. 134, 393 (2001), hereinafter referred to as “Reference 2”, the disclosures of which document are hereby incorporated by reference).
Aliquots of compounds (1 μL of a 1 mM solution) were incubated with 1 μL (0.035 pmol) of a ^32P-labelled 20 bp double-stranded DNA oligonucleotide (representing the consensus binding sequence for NFκB proteins (see Reference 2 and Brit. J. Pharmacol. 134, 1629-1638 (2001), the disclosures of which latter document are hereby incorporated by reference)) for 30 min at room temperature. […] The formation of NFκB protein-DNA complexes and potential inhibition of complex formation in the presence of the above compounds was detected by autoradiography. […]

[13] = target: DNA; details: binding to DNA; read-out: dissociation constants; cited from earlier work
[14] = system: double-stranded DNA oligonucleotide AAATTATATTAT (SEQ ID NO:1); assay: Capillary electrophoresis ligand-DNA binding study; details: AAATTATATTAT versus GGGCCGCGCCGC
Text: Capillary electrophoresis was used to study of ligand-DNA binding (see: (i) Hamdan, I. I.; Skellern, G. G.; and Waigh, R. D. “Separation of pd(GC)12 from pd(AT)12 by free solution capillary electrophoresis”, J. Cromatogr. A. 806, 165-168 (1998); (ii) Hamdan, I. I.; Skellern, G. G.; and Waigh, R. D. “Use of capillary electrophoresis in the study of ligand-DNA interactions”, Nucleic Acids Research 26, 3053-3058 (1998); (iii) Hamdan, I. I.; Skellern, G. G.; and Waigh, R. D. “Ligand binding to oligonucleotides” Methods in Molecular Biology, Vol. 163, “Capillary Electrophoresis of Nucleic acids”, Vol 2, pages 379-391, K. R. Mitchelson and J. Cheng Eds., Humana Press, New Jersey, (2000)).
(§2) Typically, ligand binding results in a change in migration time of the DNA and sometimes a change in peak shape.
(§3) The following are shown in FIGS. 1-6: • (a) the experimental conditions, including the DNA sequence(s); • (b) the result of sequential addition of ligand; and • (c) the structure of the ligand being investigated. Key to FIGS. 1 to 6: • r0=electropherogram in the absence of drug • rX=(where X is 0.5, 1, 2, 3 or 4) electropherogram in the presence of drug, where the drug:DNA ratio (in terms of concentration) is X:1
This ratio corresponds to the binding ratio. […]

[15] = system: double-stranded DNA decamer CGACTAGTCG (SEQ ID NO:3); assay: Capillary electrophoresis ligand-DNA binding study; details: drug to DNA ratio up to 4:1
Text: as §2, §3
This ratio corresponds to the binding ratio.

SMILES	MIC [1]	MIC [2]	MIC [3]	MIC [4]	MIC [5]	MIC [6]	MIC [7]	MIC [8]	MIC [9]	MIC [10]	MIC [11]	effect on LPS-stimulated NFκB-DNA binding activity [12]	Kd [13]	AT selectivity [14]	affinity for the sequence [15]
CC1(C)S[C@@H]2[C@H](NC(=O)[C@H](N)c3ccc(O)cc3)C(=O)N2[C@H]1C(=O)O [Amoxicillin, reference compound]	16.1 µM (≈ 5.88 µg/mL)	2 µM (≈ 0.731 µg/mL)	0.49 µM (≈ 0.179 µg/mL)	4 µM (≈ 1.46 µg/mL)	0.49 µM (≈ 0.179 µg/mL)	8.1 µM (≈ 2.96 µg/mL)	32.3 µM (≈ 11.8 µg/mL)								
CC(C)c1sc(NC(=O)c2cc(NC(=O)c3cc(NC=O)cn3C)cn2C)nc1C(=O)NCCCN(C)C [Example 3, N-[3-(Dimethylamino)propyl]-2-({[4-({[4-(formylamino)-1-methyl-1H-pyrrol-2-yl]carbonyl}amino)-1-methyl-1H-pyrrol-2-yl]carbonyl}amino)-5-isopropyl-1,3-thiazole-4-carboxamide]	38.1 µM (≈ 20.7 µg/mL)	> 152 µM	9.5 µM (≈ 5.16 µg/mL)	76.2 µM (≈ 41.4 µg/mL)	4.7 µM (≈ 2.55 µg/mL)	152 µM (≈ 82.6 µg/mL)	76.2 µM (≈ 41.4 µg/mL)	76.1 µM (≈ 41.3 µg/mL)	76.1 µM (≈ 41.3 µg/mL)	38.1 µM (≈ 20.7 µg/mL)	19 µM (≈ 10.3 µg/mL)				
CC(C)n1cc(NC(=O)c2cc(NC=O)cn2C)cc1C(=O)Nc1cc(C(=O)NCCCN(C)C)n(C)c1 [Example 2, N-[5-({[5-({[3-(Dimethylamino)propyl]amino}carbonyl)-1-methyl-1H-pyrrol-3-yl]amino}carbonyl)-1-isopropyl-1H-pyrrol-3-yl]-4-(formylamino)-1-methyl-1H-pyrrole-2-carboxamide]												little effect			
Cn1cc(NC(=O)c2cc(NC(=O)CN=C(N)N)cn2C)cc1C(=O)NCCC(=N)N [netropsin]													~10 µM	AT selective	
[H]/N=C(/N)N[C@H]1[C@H](O)[C@@H](O)[C@H](O[C@@H]2O[C@@H](C)[C@](O)(C=O)[C@H]2O[C@@H]2O[C@@H](CO)[C@H](O)[C@@H](O)[C@@H]2NC)[C@@H](N/C(N)=N\[H])[C@@H]1O [Streptomycin, reference compound]											21.5 µM (≈ 12.5 µg/mL)				
CC(C)c1sc(NC(=O)c2cc(NC(=O)c3ccc4c(c3)CCc3cc(C(=O)Nc5cc(C(=O)Nc6nc(C(=O)NCCCN(C)C)c(C(C)C)s6)n(C)c5)ccc3-4)cn2C)nc1C(=O)NCCCN(C)C [Example 28, N^2,N^7-Bis[5-({[4-({[3-(dimethylamino)propyl]amino}carbonyl)-5-isopropyl-1,3-thiazol-2-yl]amino}carbonyl)-1-methyl-1H-pyrrol-3-yl]-9,10-dihydro-2,7-phenanthrenedicarboxamide]	10 µM (≈ 10.2 µg/mL)	> 80.3 µM	10 µM (≈ 10.2 µg/mL)	> 80.3 µM	80 µM (≈ 81.4 µg/mL)	> 80.3 µM	> 80.3 µM	> 80.3 µM	> 80.3 µM	20.1 µM (≈ 20.4 µg/mL)	40.1 µM (≈ 40.8 µg/mL)				
CC(C)CCn1cc(NC(=O)c2ccc3[nH]c(C(=O)Nc4cc(C(=O)Nc5cc(C(=O)NCCCN6CCOCC6)n(C)c5)n(CCC(C)C)c4)cc3c2)cc1C(=O)Nc1cc(C(=O)NCCCN2CCOCC2)n(C)c1 [Example 17, N^2,N^5-Bis[1-isopentyl-5-({[1-methyl-5-({[3-(4-morpholinyl)propyl]amino}-carbonyl)-1H-pyrrol-3-yl]amino}carbonyl)-1H-pyrrol-3-yl]-1H-indole-2,5-dicarboxamide]	> 77.7 µM	> 77.7 µM	77.7 µM (≈ 82.2 µg/mL)	> 77.7 µM	19.4 µM (≈ 20.5 µg/mL)	77.7 µM (≈ 82.2 µg/mL)	38.9 µM (≈ 41.2 µg/mL)	> 77.7 µM	> 77.7 µM	77.7 µM (≈ 82.2 µg/mL)	> 77.7 µM				
CC(C)c1sc(NC(=O)c2cc(NC=O)cn2C)nc1C(=O)Nc1cc(C(=O)NCCCN(C)C)n(C)c1 [Example 7, N-[5-({[3-(Dimethylamino)propyl]amino}carbonyl)-1-methyl-1H-pyrrol-3-yl]-2-({[4-(formylamino)-1-methyl-1H-pyrrol-2-yl]carbonyl}amino)-5-isopropyl-1,3-thiazole-4-carboxamide]	19.1 µM (≈ 10.4 µg/mL)	> 152 µM	9.5 µM (≈ 5.16 µg/mL)	9.5 µM (≈ 5.16 µg/mL)	4.8 µM (≈ 2.6 µg/mL)	152 µM (≈ 82.7 µg/mL)	38.1 µM (≈ 20.7 µg/mL)	38.1 µM (≈ 20.7 µg/mL)	38.1 µM (≈ 20.7 µg/mL)	9.5 µM (≈ 5.16 µg/mL)	19 µM (≈ 10.3 µg/mL)				
OC(Cn1cncn1)(Cn1cncn1)c1ccc(F)cc1F [Fluconazole, reference compound]								> 327 µM	81.6 µM (≈ 25 µg/mL)	40.8 µM (≈ 12.5 µg/mL)					
Cn1cc(NC(=O)c2cc(NC(=O)c3cc(NC=O)cn3C)cn2C)cc1C(=O)NCCC(=N)N [distamycin, reference compound]													~10 µM		no affinity
